US4945171A, “Xanthene dyes having a fused (C) benzo ring” (Molecular Probes, Inc., priority 1987, dated 1990)

How the values were obtained:
[1] = determination of the pKa for the benzo[c]xanthene indicators from plot of absorbance ratios versus pH; conditions: 40 mM potassium phosphate buffers
Procedure: (§1) A stock solution was prepared by dissolving 7.6 mg of compound 3 in 2.00 ml methanol. The stock solution was diluted ten-fold into 40 mM pH 9.00 potassium phosphate buffer. Absorbance solutions were prepared by further diluting 25 μl of the aqueous stock solution to 2.025 ml with 40 mM potassium phosphate buffers of the appropriate pH.

[2] = fluorescence excitation/emission and quantum yield of benzo[c]xanthene dyes; format: physicochemical; conditions: for FLUORESCENCE, ACID EMIT / FLUORESCENCE, ACID EXCITE: acid form; for FLUORESCENCE, BASE EMIT / FLUORESCENCE, BASE EXCITE: base form; for APPROX. QY. (quantum yield): relative to fluorescein or sulforhodamine 101
From the text: Fluorescence data was obtained on a Perkin-Elmer Model 650-40 Fluorescence Spectrophotometer with a Perkin-Elmer/Hitachi 057 X-Y Recorder using a tenfold dilution of the absorbance solutions. An estimate of the quantum yield of the dyes relative to fluorescein or sulforhodamine 101 was obtained by integrating the emission spectrum of the dye excited at the same optical density as the standard.

[3] = absorption spectra (maxima and extinction coefficients) of benzo[c]xanthene dyes; format: physicochemical; conditions: for ABSORPTION, ACID MAXIMA (second) / EXTINCTION COEFFICIENT, ACID MAXIMA (second) / ABSORPTION, ACID MAXIMA (first) / EXTINCTION COEFFICIENT, ACID MAXIMA (first): acid form; for ABSORPTION, ACID MAXIMA (second) / EXTINCTION COEFFICIENT, ACID MAXIMA (second): longer-wavelength maximum; for ABSORPTION, ACID MAXIMA (first) / EXTINCTION COEFFICIENT, ACID MAXIMA (first): shorter-wavelength maximum; for ABSORPTION, BASE MAXIMUM / EXTINCTION COEFFICIENT, BASE MAXIMUM: base form
Procedure: as §1

[4] = physchem; conditions: 40 mm potassium phosphate buffer
Procedure: as §1

[5] = test system: cells; conditions: cited from earlier work
[6] = potassium phosphate buffer, pH 7.0

pKa [1] | FLUORESCENCE, ACID EMIT [2] | FLUORESCENCE, ACID EXCITE [2] | FLUORESCENCE, BASE EMIT [2] | FLUORESCENCE, BASE EXCITE [2] | APPROX. QY. (quantum yield) [2] | ABSORPTION, ACID MAXIMA (second) [3] | EXTINCTION COEFFICIENT, ACID MAXIMA (second) [3] | ABSORPTION, ACID MAXIMA (first) [3] | EXTINCTION COEFFICIENT, ACID MAXIMA (first) [3] | ABSORPTION, BASE MAXIMUM [3] | EXTINCTION COEFFICIENT, BASE MAXIMUM [3] | pKa [4] | Molecule | Absorbance maximum (first) [3, 6] | Absorbance maximum (second) [3, 6] | extinction coefficient (first maximum) [3, 6] | extinction coefficient (second maximum) [3, 6] | membrane permeability [5] | retention by cells ([5]; due to its high membrane permeability)
7.80 | 543 NM | 514 NM | 623 NM | 543 NM | ~0.35 | 508 NM | 28.5 10^3 cm^-1 M^-1 | 479 NM | 22.8 10^3 cm^-1 M^-1 | 537 NM | 44.4 10^3 cm^-1 M^-1 |  | 5'-(and-6')-carboxy-3,10-dihydroxy-spiro[7H-benzo[c]xanthene-7,1'(3'H)-isobenzofuran]-3'-one [Compound 2] |  |  |  |  |  | 
 | 539 NM | 513 NM | 618 NM | 540 NM | ~0.34 |  | 28.2 10^3 cm^-1 M^-1 | 480 NM | 24.8 10^3 cm^-1 M^-1 | 537 NM | 49.7 10^3 cm^-1 M^-1 | 7.85 | O=C1OC2(c3ccc(O)cc3Oc3c2ccc2cc(O)ccc32)c2ccccc21 (centres unmarked) [Compound 1, 3,10-dihydroxy-spiro[7H-benzo[c]xanthen-7,1'(3'H)-isobenzofuran]-3'-one] |  |  |  |  |  | 
 | 546 NM | 517 NM | 630 NM | 552 NM | ~0.48 | 514 NM | 25.3 10^3 cm^-1 M^-1 | 485 NM | 20.5 10^3 cm^-1 M^-1 | 547 NM | 40.4 10^3 cm^-1 M^-1 | 7.65 | O=C(O)c1ccc2c(c1)C1(OC2=O)c2cc(Cl)c(O)cc2Oc2c1ccc1cc(O)ccc21 (centres unmarked) [Compound 3] |  |  |  |  |  | 
 | 585 NM | 549 NM | 632 NM | 582 NM | ~0.19 | 544 NM | 21.6 10^3 cm^-1 M^-1 | 515 NM | 17.7 10^3 cm^-1 M^-1 | 573 NM | 44.1 10^3 cm^-1 M^-1 | 7.6 | CN(C)c1ccc2c(c1)Oc1c(ccc3cc(O)ccc13)C21OC(=O)c2ccccc21 (centres unmarked) [Compound 5] |  |  |  |  |  | 
 | 583 NM | 557 NM | 632 NM | 582 NM | ~0.23 | 550 NM | 24.4 10^3 cm^-1 M^-1 | 518 NM | 20.5 10^3 cm^-1 M^-1 | 577 NM | 46.4 10^3 cm^-1 M^-1 | 7.5 | CCN(CC)c1ccc2c(c1)Oc1c(ccc3cc(O)ccc13)C21OC(=O)c2ccccc21 (centres unmarked) [Compound 6] |  |  |  |  |  | 
 | 552 NM | 525 NM | 629 NM | 558 NM | ~0.38 | 522 NM |  | 495 NM |  | 552 NM |  | 7.7 | CCNc1cc2c(cc1C)C1(OC(=O)c3ccccc31)c1ccc3cc(O)ccc3c1O2 (centres unmarked) [Compound 7] |  |  |  |  |  | 
 | 587 NM | 556 NM | 636 NM | 581 NM | ~0.20 | 548 NM | 25.7 10^3 cm^-1 M^-1 | 518 NM | 23.2 10^3 cm^-1 M^-1 | 574 NM | 44.9 10^3 cm^-1 M^-1 | 7.5 | CN(C)c1ccc2c(c1)Oc1c(ccc3cc(O)ccc13)C21OC(=O)c2cc(C(=O)O)ccc21 (centres unmarked) [Compound 8, 5'-carboxy-10-dimethylamino-3-hydroxy-spiro[7H-benzo[c]xanthene-7,1'(3'H)-isobenzofuran]-3'-one] |  |  |  |  |  | 
 | 583 NM | 558 NM | 633 NM | 582 NM | ~0.24 | 550 NM | 29.7 10^3 cm^-1 M^-1 | 517 NM | 26.2 10^3 cm^-1 M^-1 | 577 NM | 51.5 10^3 cm^-1 M^-1 | 7.75 | CCN(CC)c1ccc2c(c1)Oc1c(ccc3cc(O)ccc13)C21OC(=O)c2ccc(C(=O)O)cc21 (centres unmarked) [Compound 9] |  |  |  |  |  | 
 | 599 NM | 530 NM | 630 NM | 590 NM | ~0.35 | 569 NM | 19.4 10^3 cm^-1 M^-1 | 529 NM | 22.2 10^3 cm^-1 M^-1 | 587 NM | 38.7 10^3 cm^-1 M^-1 | 7.9 | O=C(O)c1ccc2c(c1)C(=O)OC21c2cc3c4c(c2Oc2c1ccc1cc(O)ccc21)CCCN4CCC3 (centres unmarked) [Compound 11, [h,i]julolidino-spiro[7H-benzo[c]xanthen-7,1'(3'H)-isobenzofuran]-3'-one] |  |  |  |  |  | 
 |  |  |  |  |  |  |  |  |  |  |  |  | CC(=O)Oc1ccc2c3c(ccc2c1)C1(OC(=O)c2cc(C(=O)O)ccc21)c1ccc(N(C)C)cc1O3 (centres unmarked) [Compound 14, 3-acetoxy-5'-carboxy-10-dimethylamino-spiro[7H-benzo[c]xanthene-7,1'(3'H)-isobenzofuran]-3'-one] | 511 nm | 540 nm | 24,100 cm^-1 M^-1 | 21,700 cm^-1 M^-1 |  | 
 |  |  |  |  |  |  |  |  |  |  |  |  | N#Cc1c(O)ccc(O)c1C#N [Dihydroxyphthalonitrile] |  |  |  |  | high membrane permeability | not well retained by cells
